Legend:
OVCAR8 = test: drug sensitivity score (DSS2) on cancer cell count; higher = more sensitive; extreme values may be limits of the assay; details: 72 h
Outline: (§1)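 Ovarian cancer cells were cultured either alone or directly mixed 1:1 with lung or skin fibroblasts and plated onto 384-well plates acoustically pre-spotted with 528 approved and investigational compounds at 5 concentrations for 72 h of treatment. After fixation, cells were immunostained for CK8/18 with Hoechst and imaged at 10× across 4 fields to count cancer cells. Responses were fitted with 4-parameter logistic curves, and from these fits a drug sensitivity score was derived in Breeze, with screen quality assessed by Z'.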

KURAMOCHI = test: as above; details: 72 h
Outline: as §1

[1] = co-cultured fibroblast: BJHTERT
[2] = co-cultured fibroblast: none (monoculture)

| SMILES | drug sensitivity score (OVCAR8; [1]) [DSS] | drug sensitivity score (OVCAR8; co-cultured fibroblast: WI38) [DSS] | drug sensitivity score (OVCAR8; [2]) [DSS] | drug sensitivity score (KURAMOCHI; [1]) [DSS] | drug sensitivity score (KURAMOCHI; co-cultured fibroblast: WI38) [DSS] | drug sensitivity score (KURAMOCHI; [2]) [DSS] |
| --- | --- | --- | --- | --- | --- | --- |
| CC(C)Nc1cc(-c2c[nH]c(C(=O)N[C@H](CO)c3cccc(Cl)c3)c2)c(Cl)cn1 [Ulixertinib] | 8.8 | 13.9 | 11 | 9.7 | 9.6 | 12.2 |
| O=C(/C=C\n1cnc(-c2cc(C(F)(F)F)cc(C(F)(F)F)c2)n1)NNc1cnccn1 [Selinexor] | 22.4 | 24.3 | 27.1 | 17.1 | 21.8 | 25.3 |
| Cc1nn(C)c(COc2ccc(N3CCN(S(=O)(=O)N(C)C)CC3)cc2)c1-c1cccc2c(CCCOc3cccc4ccccc34)c(C(=O)O)n(CCN3CCOCC3)c12 | 4.7 | 4 | 8.2 | 5.7 | 8.5 | 10.3 |
| Cn1c(Nc2ccc(C(F)(F)F)cc2)nc2cc(Oc3ccnc(-c4ncc(C(F)(F)F)[nH]4)c3)ccc21 [NVP-RAF265] | 2.2 | 0 | 3.2 | 2.2 | 0.8 | 7.6 |
| CC#CC(=O)N1CC[C@@H](n2c(=O)n(-c3ccc(Oc4ccccc4)cc3)c3c(N)ncnc32)C1 [Tirabrutinib] | 0 | 0 | 0 | 1.4 | 0 | 0 |
| CCn1cc(-c2ccnc3[nH]c(-c4cccc(CN(C)C)c4)cc23)c(-c2ccc(NC(=O)N(C)C)cc2)n1 | 12.3 | 4.4 | 10 | 13.7 | 15.5 | 14.2 |
| CC(C)Cn1cnc2c(N)nc3ccccc3c21 [Imiquimod] | 0.4 | 0 | 2.8 | 0 | 0.1 | 13.4 |
| Cc1cc2c(C(=O)NC[C@H](C)c3ccccc3)c(O)c(O)cc2c(O)c1-c1c(C)cc2c(C(=O)NC[C@H](C)c3ccccc3)c(O)c(O)cc2c1O [Sabutoclax] | 16.2 | 14.2 | 26.7 | 3 | 4.3 | 23.7 |
| O=C1c2c(O)ccc(O)c2C(=O)c2c(NCCNCCO)ccc(NCCNCCO)c21 [Mitoxantrone] | 20.4 | 17 | 18.1 | 17.1 | 13.3 | 23.6 |
| CCn1c(-c2nonc2N)nc2c(C#CC(C)(C)O)ncc(OC[C@H]3CCCNC3)c21 | 0.2 | 1.1 | 0.4 | 4.3 | 6.1 | 3.9 |
| Cn1cnc2c(F)c(Nc3ccc(Br)cc3Cl)c(C(=O)NOCCO)cc21 [Selumetinib] | 6.1 | 0 | 7.8 | 15.5 | 6.4 | 20.1 |
| Cn1ncc(Cl)c1-c1cc(C(=O)N[C@H](CN)Cc2ccc(F)c(F)c2)oc1Cl [Uprosertib] | 0.6 | 0 | 0.1 | 0.5 | 4.4 | 2 |
| O=c1[nH]c(=O)n([C@H]2C[C@H](O)[C@@H](CO)O2)cc1F [Floxuridine] | 18.7 | 17.9 | 26.7 | 19.9 | 19 | 20.7 |
| Nc1cccc2c1C(=O)N(C1CCC(=O)NC1=O)C2=O (stereo unspecified) [Pomalidomide] | 0 | 0 | 0 | 0 | 0 | 0 |
| CC[C@@]1(O)C(=O)OCc2c1cc1n(c2=O)Cc2cc3c(CN(C)C)c(O)ccc3nc2-1 [Topotecan] | 22.2 | 23.1 | 30.4 | 20.9 | 25.7 | 28 |
| CN[C@@H](C)C(=O)N[C@H]1CN(C(=O)CC(C)C)CC[C@H]2CC[C@@H](C(=O)NC(c3ccccc3)c3ccccc3)N2C1=O [AT-406] | 10 | 9.9 | 9.7 | 0 | 0 | 0 |
| C=CCN(/C=C1/C(=O)O[C@H](COC)[C@@]2(C)C1=C(O)C(=O)C1=C2[C@H](OC(C)=O)C[C@]2(C)C(=O)CC[C@@H]12)CC=C [Sonolisib] | 0 | 0 | 0 | 0 | 1.5 | 0 |
| COc1ccc(COc2cc3oc(=O)c4cc(C(C)O)ccc4c3cc2OC)cc1 (stereo unspecified) [Palomid-529] | 1.1 | 1 | 0 | 0 | 0 | 0 |
| O=C(Nc1nc2cccc(-c3ccc(CN4CCS(=O)(=O)CC4)cc3)n2n1)C1CC1 [Filgotinib] | 2.9 | 1.3 | 1.7 | 5.1 | 5.2 | 2.4 |
| O=C(Nc1ccncc1)C(=O)c1cn(Cc2ccc(Cl)cc2)c2ccccc12 [Indibulin] | 11 | 26.6 | 21.2 | 13.1 | 17.2 | 19.5 |
| Cc1c(N)nc([C@H](CC(N)=O)NC[C@H](N)C(N)=O)nc1C(=O)N[C@H](C(=O)N[C@H](C)[C@@H](O)[C@H](C)C(=O)N[C@H](C(=O)NCCc1nc(-c2nc(C(=O)NCCC[S+](C)C)cs2)cs1)[C@@H](C)O)[C@@H](OC1OC(CO)C(O)C(O)C1OC1OC(CO)C(O)C(OC(N)=O)C1O)c1cnc[nH]1 (stereo partly specified) [Bleomycin] | 12.1 | 11.5 | 14.5 | 13.5 | 15.4 | 18.8 |
| CCN(CC)CCN(Cc1ccc(-c2ccc(C(F)(F)F)cc2)cc1)C(=O)Cn1c(SCc2ccc(F)cc2)nc(=O)c2c1CCC2 [Darapladib] | 0 | 8.3 | 0.4 | 0 | 0 | 0 |
| NC(=O)Nc1cc(-c2cccc(F)c2)sc1C(=O)N[C@H]1CCCNC1 [AZD7762] | 7.3 | 9.2 | 4.5 | 8.7 | 6.6 | 22.4 |
| O=C(/C=C/c1cccc(S(=O)(=O)Nc2ccccc2)c1)NO [Belinostat] | 17.7 | 18.2 | 22.5 | 15.1 | 18.6 | 27.5 |
| CN(C)C/C=C/C(=O)Nc1cc2c(Nc3ccc(F)c(Cl)c3)ncnc2cc1O[C@H]1CCOC1 [Afatinib] | 3.1 | 0 | 2.4 | 5.3 | 5 | 3.1 |
| CN1CCC(CNc2ccc3ncc(-c4cccc(OC(F)(F)F)c4)n3n2)CC1 [SGI-1776] | 8.5 | 4.5 | 5.2 | 7.9 | 6.1 | 7.6 |

| SMILES | drug sensitivity score (OVCAR8; [1]) [DSS] | drug sensitivity score (OVCAR8; co-cultured fibroblast: WI38) [DSS] | drug sensitivity score (OVCAR8; [2]) [DSS] | drug sensitivity score (KURAMOCHI; [1]) [DSS] | drug sensitivity score (KURAMOCHI; co-cultured fibroblast: WI38) [DSS] | drug sensitivity score (KURAMOCHI; [2]) [DSS] |
| --- | --- | --- | --- | --- | --- | --- |
| CCN(CC)CCNC(=O)c1c(C)[nH]c(/C=C2\C(=O)Nc3ccc(F)cc32)c1C [Sunitinib] | 0.7 | 0 | 0 | 0 | 0 | 3.2 |
| CN(C)C1CCN(C(=O)c2ccc(NC(=O)Nc3ccc(-c4nc(N5CCOCC5)nc(N5CCOCC5)n4)cc3)cc2)CC1 [Gedatolisib] | 8.7 | 2 | 8.2 | 16.8 | 16 | 21.3 |
| O=C(Nc1ccc(OC(F)(F)Cl)cc1)c1cnc(N2CC[C@@H](O)C2)c(-c2cc[nH]n2)c1 [Asciminib] | 0 | 10.5 | 0 | 0 | 0 | 0 |
| Cn1ncc(Cl)c1-c1cc(C(=O)N[C@H](CN)Cc2cccc(F)c2)sc1Cl [Afuresertib] | 0.3 | 0 | 0 | 1.1 | 0 | 0 |
| COc1cc(CCc2cc(NC(=O)c3ccc(N4CC(C)NC(C)C4)cc3)n[nH]2)cc(OC)c1 (stereo unspecified) [AZD4547] | 0 | 0 | 0 | 0 | 0 | 0 |
| Cc1[nH]c2ccccc2c1CCNCc1ccc(/C=C/C(=O)NO)cc1 [Panobinostat] | 28.1 | 20.1 | 26.4 | 14.8 | 19.4 | 21.8 |
| C[C@@H](Oc1cc(-c2cnn(C3CCNCC3)c2)cnc1N)c1c(Cl)ccc(F)c1Cl [Crizotinib] | 0.7 | 0 | 0 | 0 | 0 | 0 |
| CS(=O)(=O)CCNCc1ccc(-c2ccc3ncnc(Nc4ccc(OCc5cccc(F)c5)c(Cl)c4)c3c2)o1 [Lapatinib] | 0.7 | 0 | 0 | 9.2 | 6.8 | 0 |
| CC(C)(C#N)c1cc(Cn2cncn2)cc(C(C)(C)C#N)c1 [Anastrozole] | 0 | 0 | 0 | 0 | 0 | 0 |
| CCCS(=O)(=O)Nc1ccc(F)c(C(=O)c2c[nH]c3ncc(-c4ccc(Cl)cc4)cc23)c1F [Vemurafenib] | 0 | 1.1 | 1.3 | 0 | 0 | 0.8 |
| CNC(=O)c1ccc2cc([C@@]3(O)CCn4cncc43)ccc2c1 [Orteronel] | 0 | 0.3 | 0 | 0 | 0 | 0.5 |
| CS(=O)(=O)c1ccc(-c2cnc(N)c(C(=O)Nc3ccccc3)n2)cc1 [VE-821] | 3.1 | 0 | 0 | 0 | 0 | 0 |
| Cc1c(F)cc(C(=O)NC2CC2)cc1-c1ccc(C(=O)NCC(C)(C)C)cn1 [Losmapimod] | 0.7 | 0 | 1.5 | 2.4 | 0 | 0 |
| COc1cccc2c1C(=O)c1c(O)c3c(c(O)c1C2=O)C[C@@](O)(/C(CO)=N/NC(=O)CCCCCN1C(=O)C=CC1=O)C[C@@H]3O[C@H]1C[C@H](N)[C@H](O)[C@H](C)O1 [Aldoxorubicin] | 12.9 | 11.7 | 13.1 | 13.3 | 13.8 | 19.1 |
| Cc1c(-c2ccc(N3CCc4cccc(C(=O)Nc5nc6ccccc6s5)c4C3)nc2C(=O)O)cnn1CC12CC3CC(CC(C3)C1)C2 | 1.6 | 0 | 1.6 | 3 | 8.2 | 3.8 |
| Nc1ncnc2c1nc(N)n2[C@@H]1O[C@H](CO)[C@@H](O)[C@H]1O [8-amino-adenosine] | 17.9 | 16.5 | 19.5 | 21 | 20.3 | 21.4 |
| Nc1ncnc2c1nc(Cl)n2[C@@H]1O[C@H](CO)[C@@H](O)[C@H]1O [8-chloro-adenosine] | 12.9 | 9.9 | 16.9 | 10.1 | 10.4 | 10.3 |
| Nc1cc(F)ccc1NC(=O)/C=C/c1cnn(C/C=C/c2ccccc2)c1 [RGFP966] | 1.6 | 0.6 | 4.4 | 3.9 | 6 | 4 |
| Cc1cn(-c2cc(NC(=O)c3ccc(C)c(Nc4nccc(-c5cnccn5)n4)c3)cc(C(F)(F)F)c2)cn1 [Radotinib] | 0 | 6.2 | 1.2 | 0 | 0 | 0 |
| Cc1cc(-c2nc(-c3ccc(OC(F)(F)F)cc3)no2)nn1Cc1ccnc(N2CCN(C3CC3)CC2)c1 [BAY 87-2243] | 31.1 | 0 | 4.8 | 7.6 | 0 | 4.3 |
| CC1(C)C(C(=O)Nc2ccc(S(=O)(=O)c3ccc(NC(=O)C4C(C)(C)C4(C)C)cc3)cc2)C1(C)C [BRD7116] | 0 | 0 | 0 | 0.5 | 1.9 | 0 |
| CN(C)C(=O)c1cc2cnc(Nc3ccc(N4CCNCC4)cn3)nc2n1C1CCCC1 [Ribociclib] | 3.9 | 0 | 0 | 0 | 3.9 | 5.2 |
| CCc1c2c(nc3ccc(O)cc13)-c1cc3c(c(=O)n1C2)COC(=O)[C@]3(O)CC [SN-38] | 40.9 | 40.9 | 45 | 31.7 | 39.5 | 41 |
| C[C@]12CC[C@@H]3c4ccc(O)cc4C[C@@H](CCCCCCCCC[S+]([O-])CCCC(F)(F)C(F)(F)F)[C@H]3[C@@H]1CC[C@@H]2O (stereo partly specified) [Fulvestrant] | 0 | 7.2 | 0 | 0 | 0 | 0 |
| CN1CCN(c2nc(C3=C(c4c[nH]c5ccccc45)C(=O)NC3=O)c3ccccc3n2)CC1 [Sotrastaurin] | 0.2 | 2.6 | 0 | 1.1 | 0.6 | 12 |

Source: the supplement of paper PMC12420376
